Measurements reported in US6596863B2, “Medical composition containing nitroetheneamine Derivative or salt there of as active constituent” (Ishihara Sangyo Kaisha, Ltd., priority 1998, dated 2003).
Where two headings read alike, the source gives them in different places.

Tests used:
[1] = molecular target: T1, human MMP-9 (gelatinase B) (Homo sapiens, UniProt P14780); assay: Inhibition activity against human MMP-9 (gelatinase B), fluorescent peptide substrate; format: biochemical
T1 construct: endogenous in cells; host or cells: HT1080 human fibrosarcoma cells (ATCC CCL-121), PMA-stimulated; enzyme purified from the culture supernatant
Protocol: Human MMP-9 (gelatinase B) was purified by the following method from a culture supernatant of HT1080 cells (human fibrosarcoma).
2.5×10^6 HT1080 cells (ATCC CCL-121, purchased from Dainippon Seiyaku) were inoculated to a tissue culture dish (Code No. 3020-100, manufactured by Iwaki Glass Co., Ltd.) having a diameter of 10 cm and containing 10 ml of Dulbecco's Modified Eagle Medium (DME, No. D-5648, manufactured by Sigma Co.) containing 10% fetal bovine serum (FBS: REHATUIN™, Code No. 1020-90, manufactured by Intergen Co.) and cultured for 72 hours at 37° C. in an atmosphere comprising 5% of CO2 and 95% of air (Carbon Dioxide Incubator LNA-122D Model, manufactured by Tabai Co.). Then, the medium was changed to 10 ml of a DME culture medium containing no FBS, and phorbol 12-myristate 13-acetate (PMA, code No. 163-114851, manufactured by Wako Pure Chemical Industries, Ltd.) was added so that the final concentration became 10 ng/ml. Under the same conditions, the culturing was carried out for further 20 hours, whereupon the culture supernatant was collected and subjected to cool centrifugation at 4° C. for 5 minutes (cool centrifugal separator, manufactured by Hitachi) to remove cell fragments.
The pH of a conditioned medium (50 ml) containing MMP-9, thus prepared, was adjusted to 8.0 with 0.2N NaOH. […] Namely, the above-mentioned conditioned medium was passed through DEAE-Sephacel (manufactured by Pharmacia, gel volume: about 35 ml) preliminarily equilibrated with 50 mM Tris-HCl, pH 8.0 (A buffer), and a non-adsorption fraction was collected. Then, it was added to Dye Matrix Gel Green A (manufactured by Amicon Co., gel volume: about 6 ml) preliminarily equilibrated with 50 mM Tris-HCl, pH 7.5/10 MM CaCl2/0.05% Brij 35/0.02% NaN3 (B buffer) and thoroughly washed with the same buffer, whereupon the adsorbed enzyme was eluted with a 1M NaCl-containing B buffer. About 7.5 ml of the eluted fraction was diluted twice with the B buffer and added to Gelatin-Sepharose 4B (manufactured by Pharmacia, gel volume: about 6 ml) preliminarily equilibrated with a 0.5 M NaCl-containing B buffer. It was thoroughly washed with a 0.5M NaCl-containing B buffer, and eluted with the B buffer containing 10% of dimethylsulfoxide (DMSO) and 0.5 M of NaCl. 5.5 ml of the eluted fraction was dialyzed against a 0.1 M NaCl-containing B buffer to obtain 5.2 ml of a purified enzyme solution. The purified MMP-9 standard product was confirmed to have a single band of 92 kDa by a protein staining by SDS electrophoresis, and further, it was confirmed to have an adequate gelatin decomposing activity by gelatinzymography (carried out in accordance with a method by Howard E. W. et al; Journal Biological Chemistry, Vol. 266, 13064-13069, 1991) and to have an adequate substrate decomposing activity by the after-mentioned measurement employing a fluorescent peptide substrate specific to MMP.
The inhibition activity against human MMP-9 was measured by the following method in accordance with the method by C. G. Knight et al (FEBS Letters, Vol, 296, 263-266, 1992) employing a fluorescent peptide substrate (7-methoxycoumarin-4-yl)Acetyl-Pro-Leu-Gly-Leu-(3-[2,4-dinitrophenyl]—Ala—Arg-NH2, Code 3163-VC, manufactured by Peptide Institute, Inc.
Further, as the case requires, commercially available human MMP-9 purified enzyme (No. YU-18003, manufactured by Kabushiki Kaisha Yagai Chuo Kenkyusho; used in a final concentration of from 0.0125 to 0.025 unit/ml, No. CC079, manufactured by Chemicon International, Inc.; used in a final concentration of 0.2 μg/ml) was used for the tests. […]

[2] = compounds of the formula (I), 1st measurement, read-out: MMP-9 inhibition activities IC50, 1st
[3] = compounds of the formula (I), 2nd measurement, read-out: MMP-9 inhibition activities IC50, 2nd
[4] = compounds of the formula (I), average of 1st and 2nd (or single measurement), read-out: MMP-9 inhibition activities IC50, Average
[5] = intermediates, compounds of the formula (IV), 1st measurement, read-out: MMP-9 inhibition activities IC50, 1st
[6] = intermediates, compounds of the formula (IV), 2nd measurement, read-out: MMP-9 inhibition activities IC50, 2nd
[7] = intermediates, compounds of the formula (IV), average of 1st and 2nd (or single measurement), read-out: MMP-9 inhibition activities IC50, Average

T1 sequence (P14780 107-707 limits assumed): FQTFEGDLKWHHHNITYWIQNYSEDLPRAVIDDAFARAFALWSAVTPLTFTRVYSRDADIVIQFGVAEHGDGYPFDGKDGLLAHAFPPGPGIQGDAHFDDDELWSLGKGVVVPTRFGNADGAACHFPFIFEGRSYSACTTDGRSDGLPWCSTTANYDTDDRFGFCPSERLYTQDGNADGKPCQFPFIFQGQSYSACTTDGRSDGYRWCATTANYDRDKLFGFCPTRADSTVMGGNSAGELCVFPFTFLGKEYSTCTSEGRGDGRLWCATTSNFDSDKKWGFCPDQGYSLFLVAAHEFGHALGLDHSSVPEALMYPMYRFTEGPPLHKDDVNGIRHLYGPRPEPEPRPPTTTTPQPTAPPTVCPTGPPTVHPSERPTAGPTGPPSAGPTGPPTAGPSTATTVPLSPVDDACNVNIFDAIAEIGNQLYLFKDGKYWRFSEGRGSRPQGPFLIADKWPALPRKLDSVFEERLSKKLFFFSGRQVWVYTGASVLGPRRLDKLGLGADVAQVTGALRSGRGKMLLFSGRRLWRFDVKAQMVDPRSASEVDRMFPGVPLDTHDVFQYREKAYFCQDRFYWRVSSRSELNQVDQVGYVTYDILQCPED

SMILES | IC50 [1, 2] [µM] | IC50 [1, 3] [µM] | IC50 [1, 4] [µM] | melting point | IC50 [1, 5] [µM] | IC50 [1, 6] [µM] | IC50 [1, 7] [µM]
Cc1nn(C)c(C)c1NC(=C[N+](=O)[O-])NN [compound 111] | 45.5 | 26.8 | 36.2 | 210 to 214 °C (dec.) |  |  | 
CNC(=C[N+](=O)[O-])NNc1cccc(Cl)n1 [compound 145] | 1.7 | 4.1 | 2.9 | 221 °C (dec.) |  |  | 
CNC(=C[N+](=O)[O-])NN=C(C)c1ccccn1 [compound 33] | 30.6 | 31.9 | 31.8 | 170 °C (dec.) |  |  | 
CNC(=C[N+](=O)[O-])NNc1cc(C(F)(F)F)cc(OC)n1 [Compound No. 98, N-methyl-1-(2-(4-trifluoromethyl-6-methoxy-2-pyridyl)hydrazino)-2-nitroetheneamine] | 8.8 | 7.8 | 8.3 | 193 °C (dec.) |  |  | 
CNC(=C[N+](=O)[O-])NNc1cc(C(F)(F)F)cc(OCc2ccccn2)n1 [compound 122] | 12.6 | 16.3 | 14.5 | 170 °C (dec.) |  |  | 
CSC(=C[N+](=O)[O-])Nc1ccc2c(c1)OCO2 [Intermediate 51] |  |  |  | 153 to 155 °C | 31.6 | 26 | 28.8
COc1ccccc1NC(=C[N+](=O)[O-])NN [compound 57] | 38.7 | 35.1 | 36.6 | 135.5 to 136 °C |  |  | 
CNC(=C[N+](=O)[O-])NNc1ncc(C(F)(F)F)cc1Cl [compound 21] | 11.7 | 18.1 | 14.9 | 168 °C (dec.) |  |  | 
CSC(=C[N+](=O)[O-])NC1CCCC1 [Intermediate 3] |  |  |  | 82 to 87.5 °C | 21.3 | 37.3 | 29.3
CNC(=C[N+](=O)[O-])NN=C(C)c1cccs1 [compound 32] | 26.7 | 24 | 25.4 | 165 °C (dec.) |  |  | 
NNC(=C[N+](=O)[O-])NCc1cccc(C(F)(F)F)c1 [compound 77] | 41.4 | 35.2 | 38.3 | 155 °C |  |  | 
CNC(=C[N+](=O)[O-])NNc1ccccc1Cl [compound 8] | 36.7 | 30.1 | 33.4 | 178 °C (dec.) |  |  | 
COc1ccccc1NC(=C[N+](=O)[O-])SC [Intermediate 25] |  |  |  | 128 to 130 °C | 38.9 | 35.3 | 37.1
NC(=C[N+](=O)[O-])NNc1cc(C(F)(F)F)cc(Cl)n1 [compound 103] | 8.9 | 10.7 | 9.8 | 201 to 202 °C (dec.) |  |  | 
COc1ccc(NC(=C[N+](=O)[O-])SC)cn1 [Intermediate 49] |  |  |  | 134 to 137 °C | 29.5 | 29 | 29.3
NNC(=C[N+](=O)[O-])NCc1ccccc1 [compound 92] | 15.4 | 20.6 | 18 | 140 to 143 °C |  |  | 
NNC(=C[N+](=O)[O-])Nc1ccc2c(c1)OCO2 [compound 110] | 35.2 | 29.3 | 32.3 | 177 to 180 °C (dec.) |  |  | 
CSC(=C[N+](=O)[O-])Nc1ccc([N+](=O)[O-])cc1 [Intermediate 11] |  |  |  | 180 °C | 17.6 | 15.9 | 16.8

SMILES | IC50 [1, 2] [µM] | IC50 [1, 3] [µM] | IC50 [1, 4] [µM] | melting point | IC50 [1, 5] [µM] | IC50 [1, 6] [µM] | IC50 [1, 7] [µM]
CCNC(=C[N+](=O)[O-])NNc1cc(C(F)(F)F)cc(Cl)n1 [compound 102] | 18.2 | 14 | 16.1 | 206 °C (dec.) |  |  | 
NNC(=C[N+](=O)[O-])Nc1ccc(O)cc1 [compound 76] | 34 | 33.8 | 33.9 | 190 °C (dec.) |  |  | 
NNC(=C[N+](=O)[O-])NN1CCOCC1 [compound 67] | 56.9 | 43.1 | 50 | 187 °C (dec.) |  |  | 
C=CCOc1cc(C(F)(F)F)cc(NNC(=C[N+](=O)[O-])NC)n1 [compound 130] | 7.7 | 8.4 | 8.1 | 175 °C (dec.) |  |  | 
CNC(=C[N+](=O)[O-])NNc1ccnc2cc(C(F)(F)F)ccc12 [compound 147] | 35 | 39.9 | 37.5 | 235 °C (dec.) |  |  | 
CNC(=C[N+](=O)[O-])NN=Cc1ccc(C(=O)O)cc1 [compound 142] | 20.4 | 22.4 | 21.4 | 210 °C (dec.) |  |  | 
CNC(=C[N+](=O)[O-])NN=C(C)C [compound 25] | 21.9 | 30 | 26 | 136 °C |  |  | 
CNC(=C[N+](=O)[O-])NNc1cc(C(F)(F)F)cc(OCCOCCOC)n1 [compound 194] | 4.9 | 8.4 | 6.7 | 128 °C |  |  | 
CNC(=C[N+](=O)[O-])NN=Cc1ccc2ccccc2c1 [compound 135] | 28.2 | 20.4 | 24.3 | 190 °C (dec.) |  |  | 
NNC(=C[N+](=O)[O-])Nc1ccc2cn[nH]c2c1 [compound 152] | 29.6 | 16.3 | 23 | 209 to 213 °C (dec.) |  |  | 
CNC(=C[N+](=O)[O-])NNc1cc(C(F)(F)F)cc(OCCc2ccccn2)n1 [compound 124] | 16.1 | 18.6 | 17.4 | 181 °C (dec.) |  |  | 
CNC(=C[N+](=O)[O-])NNc1cc(C(F)(F)F)cc(OCCOC(C)C)n1 [compound 196] | 11.2 |  | 11.2 | 167 °C (dec.) |  |  | 
CNC(=C[N+](=O)[O-])NNc1ccc([N+](=O)[O-])cc1 [compound 13] | 20.1 | 16.1 | 18.1 | 186 °C (dec.) |  |  | 
CNC(=C[N+](=O)[O-])NNc1ccc(C(F)(F)F)cn1 [Compound No. 19] | 10.1 | 13.2 | 11.7 | 207 °C (dec.) |  |  | 
CNC(=C[N+](=O)[O-])NNc1cc(C(F)(F)F)cc(OCC(F)(F)F)n1 [compound 181] | 11.6 |  | 11.6 | 180 °C (dec.) |  |  | 
CNC(=C[N+](=O)[O-])NN=Cc1ccccc1 [compound 18] | 18.3 | 26.6 | 22.5 | 159 to 160 °C |  |  | 
CSC(=C[N+](=O)[O-])Nc1ccc(O)cc1 [Intermediate 12] |  |  |  | 193 °C (dec.) | 25.3 | 24.5 | 24.9
CNC(=C[N+](=O)[O-])NNc1cc(C(F)(F)F)cc(C(F)(F)F)n1 [compound 44] | 19.6 | 26.8 | 23.2 | 192 to 193 °C (dec.) |  |  | 
